Measured values from patent publication US20080233216A1, “Composition Comprising the Extract of Siegesbeckiae Herba For Preventing and Treating Arthritis and the Use Thereof” (Industry Academic Cooperation Foundation Of Kyunghee …, priority 2006, published 2008).

What was measured:
Format in all cases: in vivo
Male ICR mouse [1] = assay: Acetic acid induced writhing analgesia test; details: 100 mg/kg oral, 1 h before 0.7% acetic acid; writhing counted 10 min
Procedure: In order to determine the analgesic activity of the inventive extract of the present invention, acetic acid-induced writhing test was performed according to the method disclosed in the literature as follows (Whittle B A, Brit. J. Pharmacol. Chemother., 22, pp 246-253, 1964).
Male ICR mouse (Jung Ang laboratory animal, Japan) weighing from 20 to 25 g was acclimated for several days and each group consists of 10 mice.

Male ICR mouse [2] = assay: Arachidonic acid induced ear edema; details: 100 mg/kg oral; ear thickness 1 hour after arachidonic acid
Procedure: In order to determine the anti-inflammatory activity of inventive extract, following test using arachidonic acid-induced ear edema was performed according to method disclosed in the literature (Zhou H et al., Biol. Pharm. Bull., 29(2) pp 253-260, 2006).
Male ICR mouse (Jung Ang laboratory animal, Japan) weighing from 20 to 30 g was used as an experimental animal and each group consists of 10 mice. […] After 1 hour, the increased rate of ear thickness was calculated by comparing with that of left ear and the result was shown in Table 3.

Male ICR mouse [3] = assay: Croton oil induced ear oedema; details: 100 mg/kg oral; ear thickness 4 hours after 2.5% croton oil
Procedure: In order to determine the anti-inflammatory activity of inventive extract, following test using croton oil-induced ear edema was performed according to method disclosed in the literature (Zhang B et al., Eur. J. Pharmacol., 530(1-2), pp 166-171, 2006).
Male ICR mouse (Jung Ang laboratory animal, Japan) weighing from 20 to 30 g was used as an experimental animal and each group consists of 6 mice. […] After 4 hours, the increased rate of ear thickness was calculated by comparing with that of left ear and the result was shown in Table 4.

Cc1ccc(-c2cc(C(F)(F)F)nn2-c2ccc(S(N)(=O)=O)cc2)cc1 [Celecoxib]
Inhibition of writhing (%) (Male ICR mouse [1]): 61.9% | Inhibition rate of edema (%) (Male ICR mouse [2]): 25.29% | Inhibition rate of edema (%) (Male ICR mouse [3]): 33.12%
